Results as given in ChEMBL document CHEMBL1781936, “Structure-based design of potent aromatase inhibitors by high-throughput docking” (J Med Chem, 2011).

Test system: not listed separately; call rule not given here
Experiment: Solubility of the compound
Format: physicochemical

solubility | SMILES
Insoluble | COc1cc2sc(NC(=O)c3ccccc3Cn3cncn3)nc2cc1Cl

Biological target: T1, Aromatase (Homo sapiens, UniProt P11511)
T1 sequence (P11511 whole entry): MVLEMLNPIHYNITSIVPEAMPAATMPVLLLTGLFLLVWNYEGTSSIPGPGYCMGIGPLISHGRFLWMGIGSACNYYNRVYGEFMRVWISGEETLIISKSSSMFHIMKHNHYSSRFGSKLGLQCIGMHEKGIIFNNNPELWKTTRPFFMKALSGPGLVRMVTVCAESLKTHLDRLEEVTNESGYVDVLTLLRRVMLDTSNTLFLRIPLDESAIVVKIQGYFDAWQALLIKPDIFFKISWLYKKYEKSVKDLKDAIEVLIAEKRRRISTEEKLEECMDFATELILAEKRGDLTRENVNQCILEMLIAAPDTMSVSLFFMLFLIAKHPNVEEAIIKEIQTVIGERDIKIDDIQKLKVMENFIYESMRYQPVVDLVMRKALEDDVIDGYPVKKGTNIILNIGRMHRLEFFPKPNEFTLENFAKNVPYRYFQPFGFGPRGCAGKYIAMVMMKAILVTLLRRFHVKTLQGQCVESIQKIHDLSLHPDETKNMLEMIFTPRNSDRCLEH
Experiment: Inhibition of human recombinant aromatase using 7-methoxy-4-trifluoromethyl coumarin as substrate at 25 uM by fluorimetric analysis

inhibition (INH) | SMILES
Not Active | CC(C)(C)C(Cn1ccnc1)NC(=O)c1cc(N2CCOCC2)nc2ccccc12 (racemic)

Biological target: T1, Aromatase
Experiment: Inhibition of human recombinant aromatase using 7-methoxy-4-trifluoromethyl coumarin as substrate by fluorimetric analysis

SMILES | IC50
Cc1ccc(C(=O)NCCCn2ccnc2)cn1 | 10600 nM
Cc1ccc(C(=O)NCCCn2ccnc2)cc1[N+](=O)[O-] | 1000 nM
C=CCN(c1ccc(C(=O)NCCCn2ccnc2)cc1)S(C)(=O)=O | 2500 nM
COc1ccc2c(c1)OC1(CCN(C(=O)Cn3cncn3)CC1)CC2=O | 5790 nM
O=C(CCn1ccnc1)NC[C@H]1CC[C@H](c2ncncc2-c2ccccn2)CC1 | 3100 nM
COc1cc2c(cc1-c1cncn1CCCn1ccnc1C)OCCCO2 | 498 nM
CCOc1ccc(S(=O)(=O)NCCCn2ccnc2)c2ccccc12 | 761 nM
CC(C)(C(=O)Nc1ccccc1Oc1ccc(F)cc1)n1cncn1 | 13200 nM
CC1(C)Oc2ccc(S(=O)(=O)NCCCn3ccnc3)cc2NC1=O | 499 nM
O=C(C(=Cc1ccccc1)n1cncn1)c1ccc(Cl)cc1Cl (mixture of isomers) | 441 nM
O=c1oc2cc(OCC(O)Cn3cncn3)ccc2c2c1CCC2 (racemic) | 21700 nM
O=C(Cn1cncn1)NC(CCc1ccccc1)c1ccc2c(c1)OCCO2 (racemic) | 991 nM
CCc1[nH]c2ccc(C(=O)NCC(C)n3cncn3)cc2c1C (racemic) | 10600 nM
CC(CNC(=O)c1cc2c([nH]c1=O)CCCCC2)n1cncn1 (racemic) | > 25000 nM
Cc1ncc(CNc2ccc(OCC(O)Cn3ccnc3)cc2)cn1 (racemic) | 3500 nM
COc1ccc(C(C)NC(=O)c2ccccc2Cn2cncn2)cc1F (racemic) | 3100 nM

The remaining lines, values ahead:

IC50 | SMILES
440 nM | COc1ccc(S(=O)(=O)NCCCn2ccnc2)cc1C(C)(C)C
248 nM | O=C(Cn1ccnc1)Nc1ccccc1Oc1ccc(F)cc1
172 nM | Cc1cc(C)c(S(=O)(=O)NCCCn2ccnc2)cc1C
119 nM | O=S(=O)(NCCCn1ccnc1)c1ccc2c(c1)OCCO2
100 nM | COc1ccc(S(=O)(=O)NCCCn2ccnc2)cc1F
78.8 nM | COc1ccc(S(=O)(=O)N2CCOC(Cn3ccnc3)C2)cc1 (racemic)
66.5 nM | CC(=O)c1ccc(S(=O)(=O)N2CCOC(Cn3ccnc3)C2)cc1 (racemic)
63.7 nM | COc1cc(Cl)c(S(=O)(=O)NCCCn2ccnc2)cc1Cl
61.6 nM | COc1ccc(S(=O)(=O)NCCCn2ccnc2)cc1C
59.2 nM | COc1cc(CC(=O)N2CCOC(Cn3ccnc3)C2)cc(OC)c1OC (racemic)
46.7 nM | O=C(Cc1ccc2c(c1)OCO2)N1CCOC(Cn2ccnc2)C1 (racemic)
34.5 nM | O=C(Cc1ccc(F)cc1)N1CCOC(Cn2ccnc2)C1 (racemic)
16.5 nM | COc1ccc(C(=O)OC(COc2ccccc2)Cn2ccnc2)cc1 (racemic)
9.4 nM | COc1ccc(S(=O)(=O)N2CCCC(Cn3ccnc3)C2)cc1C(C)(C)C (racemic)
